The values below come from patent US20100009934A1, “BETA ADRENERGIC RECEPTOR AGONISTS FOR THE TREATMENT OF B-CELL PROLIFERATIVE DISORDERS” (CombinatoRx, Incorporated, priority 2008, published 2010).

This assay concerns Human Multiple Myeloma Cells (MM.1S) cultured in the presence of BAR agonist for one month. Description: Antiproliferative activity on MM.1S cultured one month in the presence of salmeterol or salbutamol. It is filed as cell-based. The note with it: for percent inhibition of cell proliferation: MM.1S cultured in Salmeterol for one month (final 64 nM), DEX (μM): 2.0, 0.666, 0.23, 0.074, 0.024, 0.0082, 0.00274, 0.0009, 0. The source says:
A recurrent problem in cancer therapy is that prolonged exposure of tumor cells to chemotherapeutic agents can generate cells resistant to agents that initially have antiproliferative or cell killing activity. […] Cells cultured for one month in the presence of BAR agonist were washed to remove drug and put into 384 well plates for 9×9 dose matrix combination screening with BAR agonists and dexamethasone.

Turning to `OCc1cc(C(O)CNCCCCCCOCCCCc2ccccc2)ccc1O` (stereo not shown) [salmeterol], the “percent inhibition of cell proliferation” value runs as follows: (Salmeterol 0.00008 μM) 6.1%; (Salmeterol 0.02 μM) 5.6%. Moreover, where the note is “[…] salmeterol, cells cultured one month in salmeterol (64 nM), Table 48”, the inhibition of proliferation amounted to 4.1%. Where the note is “cells cultured one month in salmeterol (Table 48)”, the “single agent sensitivity after culture in 64 nM salmeterol” value is “no longer sensitive”.
